Data on six molecules can be found in patent US10881110B2, “Herbicidal compositions comprising isoxazolo[5,4-b]pyridines” (BASF SE, priority 2014, dated 2021).

Molecules are shown by their SMILES.

What all share (assay): greenhouse post-emergence herbicidal test
One assay has as its system ABUTH. Type of assay: in vivo, Abutilon theophrast. The note with it: post emergence. Also noted: key to herbicidal activity against ABUTH found: rating on a scale from 0 to 100. The method, boiled down: (§1)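 Herbicidal effect is rated visually from 0, no damage, to 100, complete kill, twenty days after treating plants of 1–15 cm height. Substrate is medium loamy sand with about 4.6% humus; holding temperature depends on species, either 10-25° C or 20-35° C.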

The next assay relates to ALOMY. It is filed as in vivo, Alopecurus myosuroides. Also noted: key to herbicidal activity against ALOMY found: rating on a scale from 0 to 100. The note with it: post emergence. The method, boiled down: as §1
The test system of a further assay is AMBEL. It is filed as in vivo, Ambrosia artemisiifolia. Set-up: key: rating on a scale from 0 to 100. The procedure: (§2) The culture containers used were plastic pots containing medium loamy sand with approximately 4.6% of humus and 69.9% sand as substrate. The seeds of the test plants were sown separately for each species.
(§3) For the post-emergence treatment, the test plants were grown to a plant height of from 1 to 15 cm, depending on the plant habit, and only then treated with the active compounds which had been suspended or emulsified in water. To this end, the test plants were either sown directly, and grown in the same containers, or they were first grown separately as seedlings and transplanted into the test containers a few days prior to treatment.
(§4) Depending on the species, the plants were kept at 10-25° C. and 20-35° C., respectively.
(§5) The test period extended over 1 to 3 weeks. During this time, the plants were tended and their response to the individual treatments was evaluated 20 days after treatment except mentioned otherwise.
(§6) Evaluation was carried out using a scale from 0 to 100. 100 means no emergence of the plants, or complete destruction of at least the above-ground parts, and 0 means no damage or normal course of growth.
(§7) The respective stated components A and B, and, if appropriate, C, were formulated as a 10% by weight strength emulsion concentrate and, with addition of the amount of solvent system, introduced into the spray liquor used for applying the active compound. In the examples, the solvent used was water.
(§8) In the examples below, using the method of S. R. Colby (1967) “Calculating synergistic and antagonistic responses of herbicide combinations”, Weeds 15, p. 22 ff., the value E, which is expected if the activity of the individual active compounds is only additive, was calculated. E=X+Y−(X·Y/100)

Another assay relates to APESV. Type of assay: in vivo, Apera spica-venti. Also noted: key to herbicidal activity against APESV found: rating on a scale from 0 to 100. The settings on record: post emergence; for herbicidal activity against APESV found: single active. Summed up: as §1
In a further assay the test system is IPOHE. Type of assay: in vivo, Ipomoea hederacea. Also noted: key to herbicidal activity against IPOHE found: rating on a scale from 0 to 100. The settings on record: post emergence. Summed up:
(§9)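 Herbicidal activity scored on a 0 (no damage) to 100 (plants destroyed) scale, usually 20 days after water-based spraying of 1–15 cm plants grown in loamy sand at 10-25 °C or 20-35 °C depending on species. Components were applied from 10% emulsion concentrates; Colby's E=X+Y−(X·Y/100) gives the additive expectation.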

In the next assay the test system is MATCH. It is filed as in vivo, Matricaria recutita. The settings on record: post emergence. Also noted: key to herbicidal activity against MATCH found: rating on a scale from 0 to 100. The method, boiled down:
as §1

The subject of another assay is POLCO. Type of assay: in vivo, Polygonum convolvulus. The settings on record: post emergence. Set-up: key to herbicidal activity against POLCO found: rating on a scale from 0 to 100. Summed up: as §9
For another assay, the system named is ERICA. Type of assay: in vivo, Conyza canadensis. Also noted: key to herbicidal activity against ERICA found: rating on a scale from 0 to 100. The note with it: post emergence. Summed up: as §1
A further assay deals with GERDI. Type of assay: in vivo, Geranium dissectum. Set-up: key to herbicidal activity against GERDI found: rating on a scale from 0 to 100. The note with it: post emergence. Summed up:
as §1

A further assay has as its system VIOAR. Type of assay: in vivo, Viola arvensis. Set-up: key to herbicidal activity against VIOAR found / herbicidal activity against VIOLA found: rating on a scale from 0 to 100. The settings on record: post emergence. Summed up:
as §9

In the next assay the test system is ECHCG. It is filed as in vivo, Echinochloa crus-galli. Set-up: key to herbicidal activity against ECHCG found / herbicidal activity against ECHCH found: scale 0 to 100. The settings on record: post emergence; I.1 31.25 g/ha, B.103 7.5 g/ha a.i. The method, boiled down:
as §1

The subject of another assay is GALAP. Type of assay: in vivo, Galium aparine. Set-up: key to herbicidal activity against GALAP found: rating on a scale from 0 to 100. The settings on record: post emergence. Summed up:
as §9

Another assay has as its system KCHSC. Type of assay: in vivo, Kochia scoparia. Also noted: key to herbicidal activity against KCHSC found: rating on a scale from 0 to 100. The note with it: post emergence. Summed up: as §9
Another assay relates to PAPRH. It is filed as in vivo, Papaver rhoeas. Also noted: key: rating on a scale from 0 to 100. The settings on record: B.103 15 g/ha a.i. The procedure: as §2, §3, §4, §5, §6, §7, §8
The test system of another assay is STEME. It is filed as in vivo, Stellaria media. Also noted: key: scale 0 to 100. The note with it: I.1 15.62 g/ha, B.103 15 g/ha a.i. The procedure: as §2, §3, §4, §5, §6, §7, §8
[1] abbreviates: application rate a.i.: I.1 31.25 g/ha, B.100 (isoxaflutole) 12.5 g/ha, alone or as mixture (composition 1.100).
Where [2] appears, read: application rate a.i.: I.1 62.5 g/ha, B.100 (isoxaflutole) 12.5 g/ha, alone or as mixture (composition 1.100).
The mark [3] stands for this setting: I.1 31.25 g/ha, B.103 15 g/ha a.i.
The mark [4] stands for this setting: I.1 62.5 g/ha, B.103 7.5 g/ha a.i.
Setting [5] is: I.1 62.5 g/ha, B.103 15 g/ha a.i.
Setting [6] is: I.1 15.6 g/ha, B.103 7.5 g/ha a.i.
The mark [7] stands for this setting: I.1 31.25 g/ha, B.103 7.5 g/ha a.i.

For the molecule `Cc1cnc(C2=NC(=O)C(C)(C(C)C)N2)c(C(=O)O)c1` (stereo not shown) [B.32, imazapic], the pest or weed control at 6 g/ha was found to be 85% in the assay on ABUTH (Abutilon theophrasti, post-emergence, 480 h, B.32 alone 6 g/ha a.i., read-out: herbicidal activity against ABUTH found); 80% in the assay with APESV (Apera spica-venti, post-emergence, 480 h, B.32 alone 6 g/ha a.i., read-out: herbicidal activity against APESV found); 75% in the assay with IPOHE (Ipomoea hederacea, post-emergence, 480 h, B.32 alone 6 g/ha a.i., read-out: herbicidal activity against IPOHE found); 30% with MATCH (Matricaria chamomilla, post-emergence, 480 h, B.32 alone 6 g/ha a.i., read-out: herbicidal activity against MATCH found). Further, the pest or weed control at 3 g/ha with ALOMY (Alopecurus myosuroides, post-emergence, 480 h, B.32 alone 3 g/ha a.i., read-out: herbicidal activity against ALOMY found) turned out to be 25%; with APESV (Apera spica-venti, post-emergence, 480 h, B.32 alone 3 g/ha a.i., read-out: herbicidal activity against APESV found), 65%; with MATCH (Matricaria chamomilla, post-emergence, 480 h, B.32 alone 3 g/ha a.i., read-out: herbicidal activity against MATCH found), 0%; in the assay on POLCO (Fallopia convolvulus, post-emergence, 480 h, B.32 alone 3 g/ha a.i., read-out: herbicidal activity against POLCO found), 85%. In addition, the figures for the “herbicidal activity against AMBEL found” value with AMBEL (B.32 alone 3 g/ha a.i.) and with AMBEL (B.32 alone 6 g/ha a.i.) were 0 and 65, respectively.

Regarding `CS(=O)(=O)c1cc(C(F)(F)F)ccc1C(=O)c1cnoc1C1CC1` [B.100, isoxaflutole], the “herbicidal activity against AMBEL found” value in the assay with AMBEL (setting [1]) and in the assay with AMBEL (setting [2]) was 45 throughout. Further, the “herbicidal activity against ERICA found” value in the assay with ERICA (setting [1]) and in the assay with ERICA (setting [2]) was 80 each time. Further, the “herbicidal activity against GERDI found” value in the assay on GERDI (setting [1]) and with GERDI (setting [2]) was 0 each time. Further, the “herbicidal activity against POLCO found” value in the assay on POLCO (setting [1]) was 60. Moreover, the “herbicidal activity against VIOAR found” value in the assay on VIOAR (setting [2]) was 70.

As for `O=C(Nc1ccc(F)cc1)c1cccc(Oc2cccc(C(F)(F)F)c2)n1` [B.103, picolinafen], in the assay on ECHCG, the “herbicidal activity against ECHCG found” value came out at 20. Further, the “herbicidal activity against ERICA found” value stood at 65 in the assay with ERICA (setting [3]), 25 in the assay with ERICA (setting [4]) and 65 in the assay on ERICA (setting [5]). Besides, the “herbicidal activity against GALAP found” value in the assay on GALAP (setting [4]) is reported as 70. For the same molecule, the “herbicidal activity against GERDI found” value in the assay on GERDI (setting [6]), in the assay with GERDI (setting [7]), with GERDI (setting [3]), with GERDI (setting [4]) and with GERDI (setting [5]) was 0 in each case. In addition, the “herbicidal activity against IPOHE found” value with IPOHE (setting [6]) came out at 40; in the assay with IPOHE (setting [3]) it was 60. The “herbicidal activity against KCHSC found” value in the assay on KCHSC (setting [7]), with KCHSC (setting [3]), in the assay on KCHSC (setting [4]) and in the assay with KCHSC (setting [5]) was 60 each time. Also, the “herbicidal activity against PAPRH found” value in the assay on PAPRH (I.1 15.62 g/ha) and in the assay on PAPRH (I.1 31.25 g/ha) was 70 in each case. Moreover, the “herbicidal activity against POLCO found” value with POLCO (setting [6]) amounted to 40; in the assay with POLCO (setting [4]), 40; in the assay with POLCO (setting [5]), 70. The “herbicidal activity against STEME found” value in the assay with STEME is recorded as 65.

Turning to `CCc1cccc(C)c1N(C(=O)CCl)[C@@H](C)COC` [B.134, S-metolachlor], the “herbicidal activity against ABUTH found” value in the assay on ABUTH (applied alone at 250 g/ha a.i.) came to 40. The “herbicidal activity against ALOMY found” value with ALOMY (applied alone at 250 g/ha a.i.) came out at 0; in the assay with ALOMY (applied alone at 500 g/ha a.i.) it was 20. The “herbicidal activity against AMBEL found” value with AMBEL (applied alone at 250 g/ha a.i.) is reported as 25; in the assay on AMBEL (applied alone at 500 g/ha a.i.) it was 65. The “herbicidal activity against ERICA found” value with ERICA (applied alone at 250 g/ha a.i.) was determined as 25; with ERICA (applied alone at 500 g/ha a.i.), 35. Also, in the assay with GALAP (applied alone at 250 g/ha a.i.), the “herbicidal activity against GALAP found” value is 45. Further, in the assay on GERDI (applied alone at 500 g/ha a.i.), the “herbicidal activity against GERDI found” value is 30. In addition, the “herbicidal activity against KCHSC found” value with KCHSC (applied alone at 500 g/ha a.i.) is listed as 30. Moreover, the “herbicidal activity against POLCO found” value with POLCO (applied alone at 250 g/ha a.i.) came to 35; in the assay on POLCO (applied alone at 500 g/ha a.i.), 60. The “herbicidal activity against VIOAR found” value in the assay on VIOAR (applied alone at 250 g/ha a.i.) and with VIOAR (applied alone at 500 g/ha a.i.) was 0 each time.

As to `Nc1cc(Cl)nc(C(=O)O)c1Cl` [B.144, aminopyralid], in the assay on ABUTH (single active, 4 g/ha a.i.), the “herbicidal activity against ABUTH found” value is 0. The “herbicidal activity against AMBEL found” value in the assay with AMBEL (single active, 8 g/ha a.i.) is recorded as 75. The “herbicidal activity against APESV found” value in the assay with APESV (4 g/ha a.i.) was determined as 0. Besides, the “herbicidal activity against KCHSC found” value with KCHSC (single active, 4 g/ha a.i.) amounted to 0; in the assay on KCHSC (single active, 8 g/ha a.i.), 0. The “herbicidal activity against POLCO found” value in the assay on POLCO (single active, 4 g/ha a.i.) is on record as 98; with POLCO (single active, 8 g/ha a.i.), 98. In the assay with VIOAR (single active, 4 g/ha a.i.), the “herbicidal activity against VIOLA found” value was 0.

`Cc1ccc2c(c1)[C@H](Nc1nc(N)nc(C(C)F)n1)[C@@H](C)C2` (stereo partly shown) [B.178, indaziflam]: the “herbicidal activity against ABUTH found” value with ABUTH (single active, 6 g/ha a.i.) worked out at 60. Besides, in the assay on AMBEL (single active, 6 g/ha a.i.), the “herbicidal activity against AMBEL found” value was determined as 70. Further, in the assay with APESV (3 g/ha a.i.), the “herbicidal activity against APESV found” value is on record as 40. For the same molecule, the “herbicidal activity against ERICA found” value in the assay on ERICA (single active, 3 g/ha a.i.) was determined as 15; in the assay on ERICA (single active, 6 g/ha a.i.), 60. Moreover, the “herbicidal activity against GALAP found” value in the assay on GALAP (single active, 3 g/ha a.i.) worked out at 65; with GALAP (single active, 6 g/ha a.i.) it was 60. The “herbicidal activity against GERDI found” value in the assay with GERDI (single active, 3 g/ha a.i.) turned out to be 55; in the assay on GERDI (single active, 6 g/ha a.i.) it was 55. Also, in the assay on KCHSC (single active, 3 g/ha a.i.), the “herbicidal activity against KCHSC found” value was found to be 15. Besides, the “herbicidal activity against MATCH found” value in the assay with MATCH (single active, 3 g/ha a.i.) is 35.
